{"source": "paper PMC9007350", "about": "“Aurintricarboxylic acid is a canonical disruptor of the TAZ-TEAD transcriptional complex” (PLoS ONE, 2022)", "test_system": "TC/TEAD transcriptional profile in TC-expressing NIH3T3 cells", "test": "Bulk RNA-Seq, differential gene expression and GSEA (TC ATA v. TC DMSO)", "assay_type": "cell-based, murine", "conditions": "TC ATA v. TC DMSO", "experimental": "NIH3T3 and HEK293 cells were obtained from the American Type Tissue Collection (ATCC, Manassas, VA) and cultured in DMEM containing 10% fetal bovine serum and penicillin/streptomycin. A TEAD dual luciferase reporter assay was performed as previously described. Cells were treated with vehicle control or ATA (10 μM) for 48 h before measuring the luciferase activity or processing the samples for RNA extraction. Each experiment was repeated at least 2-3 times. NIH3T3 cells were used. The extracted RNA (RNeasy Mini, Qiagen) from treated cells was either used for qPCR measurements or sent for bulk RNA-Seq. Sequencing runs were performed on an Illumina HiSeq 4000 sequencer (Genewiz). Subsequent bioinformatics analysis was performed in the Galaxy Project platform. Paired end reads were aligned to the murine genome ([…]2 [27]. Raw count files were generated with featureCounts using a corresponding GTF reference. Differential gene expression analysis was performed with DESeq2 [29]. Transcripts were considered to be differentially expressed if the false discovery rate < 0.05 and Log2FC > 2. When performing differential gene expression for GSEA analysis, the Limma package was used (<5 CPM filtering) with t-scores used for rank statistics. GSEA plots and statistics were generated with FGSEA with custom gene sets. Raw sequencing reads and processed files have been deposited in the GEO repository (data will be uploaded upon manuscript acceptance). The Universal Probe Library probes (Roche) and the associated primer sequences for the qPCR targets are listed below: […]", "data": [{"smiles": "O=C(O)C1=CC(=C(c2ccc(O)c(C(=O)O)c2)c2ccc(O)c(C(=O)O)c2)C=CC1=O", "note": "[ATA, aurintricarboxylic acid]", "values": [{"measurement": "Log2 Fold Change", "setting": "gene Hmga1b", "result": -0.4737}, {"measurement": "Log2 Fold Change", "setting": "gene Htra1", "result": -0.7041}, {"measurement": "Log2 Fold Change", "setting": "gene Id1", "result": 1.021}, {"measurement": "Log2 Fold Change", "setting": "gene Id3", "result": 0.8267}, {"measurement": "Log2 Fold Change", "setting": "gene Igfbp4", "result": 0.6017}, {"measurement": "Log2 Fold Change", "setting": "gene Il1r1", "result": 0.3663}, {"measurement": "Log2 Fold Change", "setting": "gene Il11ra1", "result": 0.412}, {"measurement": "Log2 Fold Change", "setting": "gene Il17rd", "result": 0.6209}, {"measurement": "Log2 Fold Change", "setting": "gene Ipo7", "result": -0.2967}, {"measurement": "Log2 Fold Change", "setting": "gene Lrig1", "result": -0.4157}, {"measurement": "Log2 Fold Change", "setting": "gene Ltbp2", "result": -0.4917}, {"measurement": "Log2 Fold Change", "setting": "gene Ly6a", "result": 1.151}, {"measurement": "Log2 Fold Change", "setting": "gene Mgst1", "result": 1.029}, {"measurement": "Log2 Fold Change", "setting": "gene Mocs1", "result": 0.3748}, {"measurement": "Log2 Fold Change", "setting": "gene Mrgprf", "result": 0.6309}, {"measurement": "Log2 Fold Change", "setting": "gene Mybpc1", "result": 0.8979}, {"measurement": "Log2 Fold Change", "setting": "gene Myl3", "result": 1.696}, {"measurement": "Log2 Fold Change", "setting": "gene Myoz2", "result": 1.5589}, {"measurement": "Log2 Fold Change", "setting": "gene Naaa", "result": 0.4836}, {"measurement": "Log2 Fold Change", "setting": "gene Nefm", "result": -1.532}, {"measurement": "Log2 Fold Change", "setting": "gene Nes", "result": -0.5782}, {"measurement": "Log2 Fold Change", "setting": "gene Nipal1", "result": -0.5524}, {"measurement": "Log2 Fold Change", "setting": "gene Nqo1", "result": 0.5252}, {"measurement": "Log2 Fold Change", "setting": "gene Nrcam", "result": -1.361}, {"measurement": "Log2 Fold Change", "setting": "gene Nrn1", "result": 0.4579}, {"measurement": "Log2 Fold Change", "setting": "gene Nrxn2", "result": 0.7098}, {"measurement": "Log2 Fold Change", "setting": "gene Odc1", "result": -0.4352}, {"measurement": "Log2 Fold Change", "setting": "gene Optn", "result": 0.5559}, {"measurement": "Log2 Fold Change", "setting": "gene Osmr", "result": 0.5327}, {"measurement": "Log2 Fold Change", "setting": "gene Pcx", "result": 0.5741}, {"measurement": "Log2 Fold Change", "setting": "gene Pdgfrb", "result": 0.5085}, {"measurement": "Log2 Fold Change", "setting": "gene Pdgfrl", "result": 0.4243}, {"measurement": "Log2 Fold Change", "setting": "gene Podnl1", "result": -0.4267}, {"measurement": "Log2 Fold Change", "setting": "gene Prrx2", "result": 0.8257}, {"measurement": "Log2 Fold Change", "setting": "gene Pvr", "result": -0.3787}, {"measurement": "Log2 Fold Change", "setting": "gene Rcan2", "result": 0.6454}, {"measurement": "Log2 Fold Change", "setting": "gene Rgs4", "result": 0.757}, {"measurement": "Log2 Fold Change", "setting": "gene Rnf150", "result": 0.5435}, {"measurement": "Log2 Fold Change", "setting": "gene Sema7a", "result": -1.826}, {"measurement": "Log2 Fold Change", "setting": "gene Serpinb9", "result": 0.5861}, {"measurement": "Log2 Fold Change", "setting": "gene Serpine2", "result": 0.9636}, {"measurement": "Log2 Fold Change", "setting": "gene Setbp1", "result": 0.5242}, {"measurement": "Log2 Fold Change", "setting": "gene Slc45a3", "result": 0.6918}, {"measurement": "Log2 Fold Change", "setting": "gene Smoc2", "result": 0.9475}, {"measurement": "Log2 Fold Change", "setting": "gene Ssbp2", "result": 0.4963}, {"measurement": "Log2 Fold Change", "setting": "gene Stard10", "result": 0.7192}, {"measurement": "Log2 Fold Change", "setting": "gene Sulf2", "result": 0.5447}, {"measurement": "Log2 Fold Change", "setting": "gene Thbs3", "result": 0.6372}, {"measurement": "Log2 Fold Change", "setting": "gene Tmem119", "result": 0.9507}, {"measurement": "Log2 Fold Change", "setting": "gene Tnnt1", "result": 1.595}, {"measurement": "Log2 Fold Change", "setting": "gene Tnxb", "result": 0.5484}, {"measurement": "Log2 Fold Change", "setting": "gene Tpm2", "result": 0.3178}, {"measurement": "Log2 Fold Change", "setting": "gene Trim30a", "result": 1.18}, {"measurement": "Log2 Fold Change", "setting": "gene Trp53inp2", "result": 0.6286}, {"measurement": "Log2 Fold Change", "setting": "gene Zfp503", "result": 0.4797}]}]}
